Data published in ChEMBL document CHEMBL3046902, “New dihydropyridine derivatives: anti-inflammatory, analgesic and docking studies” (2013).

Assays:
Format in all cases: functional
Rattus norvegicus [1] = assay: Anti-inflammatory activity in Rattus norvegicus Wistar (rat) assessed as inhibition of carrageenan-induced paw edema at 20 mg/kg administered 30 min prior to carrageenan challenge measured after 2 hr by plethysmographic analysis relative to untreated control
Rattus norvegicus [2] = assay: Anti-inflammatory activity in Rattus norvegicus Wistar (rat) assessed as inhibition of carrageenan-induced paw edema at 20 mg/kg administered 30 min prior to carrageenan challenge measured after 0.5 hr by plethysmographic analysis relative to untreated control
Rattus norvegicus [3] = species: Rattus norvegicus; assay: Analgesic activity in Rattus norvegicus Wistar (rat) assessed as tail flick latency time after 90 min by tail immersion test (reference value: 3.25 +/- 0.005 secs)
Rattus norvegicus [4] = species: Rattus norvegicus; assay: Analgesic activity in Rattus norvegicus Wistar (rat) assessed as tail flick latency time after 60 min by tail immersion test (reference value: 3.34 +/- 0.005 secs)
Rattus norvegicus [5] = species: Rattus norvegicus; assay: Analgesic activity in Rattus norvegicus Wistar (rat) assessed as tail flick latency time after 30 min by tail immersion test (reference value: 3.23 +/- 0.005 secs)
Rattus norvegicus [6] = assay: Anti-inflammatory activity in Rattus norvegicus Wistar (rat) assessed as inhibition of carrageenan-induced paw edema at 20 mg/kg administered 30 min prior to carrageenan challenge measured after 3 hr by plethysmographic analysis relative to untreated control
Rattus norvegicus [7] = assay: Anti-inflammatory activity in Rattus norvegicus Wistar (rat) assessed as inhibition of carrageenan-induced paw edema at 20 mg/kg administered 30 min prior to carrageenan challenge measured after 1 hr by plethysmographic analysis relative to untreated control

SMILES | inhibition in vivo at 20 mg/kg (Rattus norvegicus [1]) [%] | inhibition in vivo at 20 mg/kg (Rattus norvegicus [2]) [%] | Time (Rattus norvegicus [3]) [s] | Time (Rattus norvegicus [4]) [s] | Time (Rattus norvegicus [5]) [s] | inhibition in vivo at 20 mg/kg (Rattus norvegicus [6]) [%] | inhibition in vivo at 20 mg/kg (Rattus norvegicus [7]) [%]
CCOC(=O)C1=C(C)NC(C)=C(C(=O)OCC)C1c1ccc(OCC(=O)Nc2ccc(C)cc2)cc1 | 62.2 | 43.9 |  |  |  |  | 
CCOC(=O)C1=C(C)NC(C)=C(C(=O)OCC)C1c1ccc(OCC(=O)NN2C(=O)c3ccccc3C2=O)cc1 |  |  | 7.21 | 6.16 | 5.03 |  | 
CCOC(=O)C1=C(C)NC(C)=C(C(=O)OCC)C1c1ccc(OCC(=O)NNC(=O)c2ccccc2)cc1 | 44.5 | 9.1 | 6.37 | 5.87 | 4.62 |  | 
CCOC(=O)C1=C(C)NC(C)=C(C(=O)OCC)C1c1ccc(OCC(=O)NNC(=O)CCC(=O)O)cc1 |  |  | 6.87 | 6.07 | 4.96 |  | 
O=C(O)Cc1ccccc1Nc1c(Cl)cccc1Cl [DICLOFENAC SODIUM] | 61.1 | 16.7 |  |  |  | 65.3 | 41
CCOC(=O)C1=C(C)NC(C)=C(C(=O)OCC)C1c1ccc(OCC(=O)NNC(=O)c2ccsc2Cl)cc1 |  | 12.9 | 6.46 | 5.74 | 4.85 |  | 
CCOC(=O)C1=C(C)NC(C)=C(C(=O)OCC)C1c1ccc(OCC(=O)Nc2nc3ccccc3s2)cc1 | 64.5 | 47.7 |  | 6.03 | 5.28 |  | 
CCOC(=O)C1=C(C)NC(C)=C(C(=O)OCC)C1c1ccc(OCC(=O)n2nc(C)cc2C)cc1 |  | 13.7 | 6.78 | 5.93 | 4.76 |  | 
CCOC(=O)C1=C(C)NC(C)=C(C(=O)OCC)C1c1ccc(OCC(=O)NNC(=O)c2cccs2)cc1 | 62.2 | 44 | 7.02 | 6.23 |  |  | 
CCOC(=O)C1=C(C)NC(C)=C(C(=O)OCC)C1c1ccc(OCC(=O)NCc2ccccc2)cc1 | 8.9 |  |  |  |  |  | 16.1
CCOC(=O)C1=C(C)NC(C)=C(C(=O)OCC)C1c1ccc(OCC(=O)NNC(=O)c2sccc2Cl)cc1 | 57.2 |  | 6.45 | 5.67 | 4.34 |  | 
CCOC(=O)C1=C(C)NC(C)=C(C(=O)OCC)C1c1ccc(OCc2nnc(S)o2)cc1 | 61.7 | 42.4 | 6.97 | 6.07 | 4.97 |  | 
CCOC(=O)C1=C(C)NC(C)=C(C(=O)OCC)C1c1ccc(OCC(=O)Nc2c(C)cccc2C)cc1 | 47.8 | 15.9 |  |  |  |  | 
O=C([O-])Cc1ccccc1Nc1c(Cl)cccc1Cl.[K+] [DICLOFENAC POTASSIUM] |  |  | 7.45 | 6.95 | 6.25 |  | 
